Our source for the IC50 values is US9815847B2 (Icahn School of Medicine at Mount Sinai, priority 2013, dated 2017).

What all share (experiment): Kinase inhibition assay
Format in all cases: biochemical
What all share (details): 10 μM ATP; 5-dose IC50 mode

Test [1] concerns the target T1, ABL1 (Homo sapiens, UniProt P00519).
T1 construct: purchased Reaction Biology Corporation
Here is the method: (§1) Kinase assays were performed at Reaction Biology Corporation. To a freshly prepared buffer solution was added the target kinase at a concentration of […]. The contents were mixed gently, and then compound 8h dissolved in DMSO was added to the reaction mixture in the appropriate concentration. The mixture was incubated at room temperature for 30 min. prior to addition of ATP to initiate the reaction. Compound 8h was tested in a 5-dose IC50 mode with 10-fold serial dilutions starting at 10 μM. For each of the kinases, a control compound in a 10-dose IC50 mode with 3-fold serial dilutions starting at 20 μM. The control compounds were GW5074 (3-(3,5-dibromo-4-hydroxy-benzylidene)-5-iodo-1,3-dihydro-indol-2-one) for BRAF, CK2a and RAF1, D4476 (4-[4-(2,3-dihydro-1,4-benzodioxin-6-yl)-5-(2-pyridinyl)-1H-imidazol-2-yl]benzamide) for CK1d; Wee1 inhibitor (4-(2-chlorophenyl)-9-hydroxypyrrolo[3,4-c]carbazole-1,3-(2H,6H)-dione) for WEE1 and saturosporine for other kinases. Reaction was carried out at 10 μM ATP concentration.

Test [2] deals with T2, Aurora B (Homo sapiens, UniProt Q96GD4).
T2 construct: purchased Reaction Biology Corporation
As to the method:
as §1

Test [3] concerns the target T3, Aurora C (Homo sapiens, UniProt Q9UQB9).
T3 construct: purchased Reaction Biology Corporation
Here is the method: as §1

Test [4] has as its target T4, CDK2/cyclin A (Homo sapiens, UniProt P24941).
T4 construct: purchased Reaction Biology Corporation
As to the method: as §1

Test [5] concerns the target T5, CDK4/cyclin D1 (Homo sapiens, UniProt P11802).
T5 construct: purchased Reaction Biology Corporation
As to the method:
as §1

Test [6] has as its target T6, CDK5/p25 (Homo sapiens, UniProt Q00535).
T6 construct: purchased Reaction Biology Corporation
As to the method: as §1

For test [7], the target named is T7, CHK2 (Homo sapiens, UniProt O96017).
T7 construct: purchased Reaction Biology Corporation
As to the method:
as §1

The target in test [8] is T8, FGFR1 (Homo sapiens, UniProt P11362).
T8 construct: purchased Reaction Biology Corporation
As to the method:
as §1

Test [9] concerns the target T9, FLT3 (Homo sapiens, UniProt P36888).
T9 construct: purchased Reaction Biology Corporation
Here is the method: as §1

Test [10] concerns the target T10, JAK1 (Homo sapiens, UniProt P23458).
T10 construct: purchased Reaction Biology Corporation
As to the method:
as §1

Test [11] has as its target T11, JAK2 (Homo sapiens, UniProt O60674).
T11 construct: purchased Reaction Biology Corporation
Here is the method: as §1

Test [12] has as its target T12, JAK3 (Homo sapiens, UniProt P52333).
T12 construct: purchased Reaction Biology Corporation
Here is the method:
as §1

Test [13] deals with T13, PDGFRb (Homo sapiens, UniProt P09619).
T13 construct: purchased Reaction Biology Corporation
Here is the method:
as §1

Test [14] addresses T14, PIM1 (Homo sapiens, UniProt P11309).
T14 construct: purchased Reaction Biology Corporation
Here is the method: as §1

The target of test [15] is T15, PLK2 (Homo sapiens, UniProt Q9NYY3).
T15 construct: purchased Reaction Biology Corporation
As to the method: as §1

T3 sequence (Q9UQB9 whole entry): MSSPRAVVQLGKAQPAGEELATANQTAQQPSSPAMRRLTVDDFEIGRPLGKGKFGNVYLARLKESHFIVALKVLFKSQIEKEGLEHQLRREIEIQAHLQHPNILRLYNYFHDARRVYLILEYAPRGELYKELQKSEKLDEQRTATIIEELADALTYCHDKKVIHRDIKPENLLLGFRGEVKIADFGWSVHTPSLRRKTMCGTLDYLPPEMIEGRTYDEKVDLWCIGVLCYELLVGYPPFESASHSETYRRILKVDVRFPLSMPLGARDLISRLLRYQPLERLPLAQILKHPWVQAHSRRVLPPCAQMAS
T5 sequence (P11802 whole entry): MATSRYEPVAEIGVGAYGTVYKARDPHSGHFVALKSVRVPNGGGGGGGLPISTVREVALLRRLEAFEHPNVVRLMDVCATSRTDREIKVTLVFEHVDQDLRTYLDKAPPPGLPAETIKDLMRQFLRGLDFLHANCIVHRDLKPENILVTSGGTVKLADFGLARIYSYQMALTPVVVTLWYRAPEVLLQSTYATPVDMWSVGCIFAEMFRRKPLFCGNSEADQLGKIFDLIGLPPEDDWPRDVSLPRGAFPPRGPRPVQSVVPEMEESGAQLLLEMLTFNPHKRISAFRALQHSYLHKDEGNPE
T5 sequence (P24385 whole entry partner): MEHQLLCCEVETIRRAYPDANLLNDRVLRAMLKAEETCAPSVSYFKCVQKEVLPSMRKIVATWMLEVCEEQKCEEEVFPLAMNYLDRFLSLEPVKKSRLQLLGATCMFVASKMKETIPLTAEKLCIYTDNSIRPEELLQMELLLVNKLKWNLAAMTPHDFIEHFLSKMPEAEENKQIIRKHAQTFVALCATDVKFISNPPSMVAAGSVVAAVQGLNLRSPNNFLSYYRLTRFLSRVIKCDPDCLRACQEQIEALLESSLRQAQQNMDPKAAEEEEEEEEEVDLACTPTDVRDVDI
T15 sequence (Q9NYY3 whole entry): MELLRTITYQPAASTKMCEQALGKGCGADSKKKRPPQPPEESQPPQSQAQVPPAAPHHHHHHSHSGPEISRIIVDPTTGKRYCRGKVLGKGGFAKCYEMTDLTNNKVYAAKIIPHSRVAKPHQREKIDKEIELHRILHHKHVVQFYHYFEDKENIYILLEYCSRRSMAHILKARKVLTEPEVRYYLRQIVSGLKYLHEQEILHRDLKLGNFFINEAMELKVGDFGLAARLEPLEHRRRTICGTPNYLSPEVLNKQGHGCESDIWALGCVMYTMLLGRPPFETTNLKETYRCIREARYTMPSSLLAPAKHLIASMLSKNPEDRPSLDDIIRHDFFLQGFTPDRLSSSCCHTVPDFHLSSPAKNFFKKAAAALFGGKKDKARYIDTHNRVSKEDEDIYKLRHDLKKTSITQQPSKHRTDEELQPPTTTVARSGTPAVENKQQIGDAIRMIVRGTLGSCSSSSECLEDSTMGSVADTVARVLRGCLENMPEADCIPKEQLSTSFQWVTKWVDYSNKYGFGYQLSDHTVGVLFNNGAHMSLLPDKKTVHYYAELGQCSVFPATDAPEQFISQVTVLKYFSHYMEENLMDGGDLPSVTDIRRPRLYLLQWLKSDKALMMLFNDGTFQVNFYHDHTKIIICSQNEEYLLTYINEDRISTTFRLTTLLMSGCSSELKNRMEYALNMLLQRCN
T8 sequence (P11362 22-822): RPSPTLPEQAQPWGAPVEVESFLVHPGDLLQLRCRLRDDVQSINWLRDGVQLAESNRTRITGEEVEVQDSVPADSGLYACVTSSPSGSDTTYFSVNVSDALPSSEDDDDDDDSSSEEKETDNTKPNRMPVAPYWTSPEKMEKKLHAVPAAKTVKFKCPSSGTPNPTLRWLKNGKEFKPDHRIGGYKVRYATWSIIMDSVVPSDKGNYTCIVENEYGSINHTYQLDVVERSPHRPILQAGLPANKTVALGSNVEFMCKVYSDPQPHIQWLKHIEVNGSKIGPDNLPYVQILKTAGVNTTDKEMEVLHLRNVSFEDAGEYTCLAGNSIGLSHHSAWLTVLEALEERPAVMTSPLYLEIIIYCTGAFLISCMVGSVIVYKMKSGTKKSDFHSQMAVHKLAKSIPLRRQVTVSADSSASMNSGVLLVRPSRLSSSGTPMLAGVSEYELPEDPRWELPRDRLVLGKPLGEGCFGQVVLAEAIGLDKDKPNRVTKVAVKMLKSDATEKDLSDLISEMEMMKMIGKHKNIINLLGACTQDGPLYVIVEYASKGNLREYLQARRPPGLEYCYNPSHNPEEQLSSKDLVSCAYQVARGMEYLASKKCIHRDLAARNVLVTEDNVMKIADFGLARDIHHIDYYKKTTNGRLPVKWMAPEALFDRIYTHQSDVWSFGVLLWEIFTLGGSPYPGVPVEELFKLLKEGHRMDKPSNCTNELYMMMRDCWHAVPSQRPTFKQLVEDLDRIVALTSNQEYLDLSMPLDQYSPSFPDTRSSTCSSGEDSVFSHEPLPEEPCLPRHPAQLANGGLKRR
T2 sequence (Q96GD4 whole entry): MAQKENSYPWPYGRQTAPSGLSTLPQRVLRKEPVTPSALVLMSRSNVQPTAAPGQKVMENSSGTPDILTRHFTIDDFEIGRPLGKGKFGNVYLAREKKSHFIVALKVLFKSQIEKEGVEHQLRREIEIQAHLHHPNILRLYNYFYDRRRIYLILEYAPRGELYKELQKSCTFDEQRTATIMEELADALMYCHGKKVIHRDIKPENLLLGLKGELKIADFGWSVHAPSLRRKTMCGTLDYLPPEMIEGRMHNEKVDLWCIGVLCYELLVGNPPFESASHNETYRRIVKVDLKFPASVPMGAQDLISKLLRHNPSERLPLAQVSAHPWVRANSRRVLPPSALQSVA
T1 sequence (P00519 whole entry): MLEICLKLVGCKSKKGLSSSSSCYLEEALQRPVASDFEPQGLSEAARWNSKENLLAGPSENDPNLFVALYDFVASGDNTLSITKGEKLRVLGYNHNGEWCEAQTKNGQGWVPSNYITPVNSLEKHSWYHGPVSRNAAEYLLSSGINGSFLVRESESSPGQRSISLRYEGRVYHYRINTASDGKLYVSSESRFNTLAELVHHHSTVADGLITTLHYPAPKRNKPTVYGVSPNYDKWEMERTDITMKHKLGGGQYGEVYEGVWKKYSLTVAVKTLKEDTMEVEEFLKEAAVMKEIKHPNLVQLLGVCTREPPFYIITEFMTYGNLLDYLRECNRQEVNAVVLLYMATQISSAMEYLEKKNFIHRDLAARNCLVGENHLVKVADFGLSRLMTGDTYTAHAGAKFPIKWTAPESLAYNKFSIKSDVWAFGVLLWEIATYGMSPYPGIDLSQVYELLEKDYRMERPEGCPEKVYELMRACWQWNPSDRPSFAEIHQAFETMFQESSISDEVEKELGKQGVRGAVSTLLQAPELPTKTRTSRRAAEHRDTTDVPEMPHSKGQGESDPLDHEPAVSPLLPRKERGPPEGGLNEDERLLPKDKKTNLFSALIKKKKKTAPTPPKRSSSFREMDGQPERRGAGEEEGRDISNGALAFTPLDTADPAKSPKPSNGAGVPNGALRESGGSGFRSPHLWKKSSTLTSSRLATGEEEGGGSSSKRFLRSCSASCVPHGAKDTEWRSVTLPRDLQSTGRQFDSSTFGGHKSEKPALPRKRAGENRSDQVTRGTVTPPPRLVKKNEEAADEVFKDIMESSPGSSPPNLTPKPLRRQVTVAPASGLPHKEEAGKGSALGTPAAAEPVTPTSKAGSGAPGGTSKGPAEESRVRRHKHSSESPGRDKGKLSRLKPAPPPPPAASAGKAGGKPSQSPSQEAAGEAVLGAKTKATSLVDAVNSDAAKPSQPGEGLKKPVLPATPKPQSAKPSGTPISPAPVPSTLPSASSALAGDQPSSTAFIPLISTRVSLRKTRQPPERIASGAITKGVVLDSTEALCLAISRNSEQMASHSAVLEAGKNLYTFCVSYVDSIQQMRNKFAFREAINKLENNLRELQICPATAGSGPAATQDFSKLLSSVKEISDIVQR
T13 sequence (P09619 33-1106): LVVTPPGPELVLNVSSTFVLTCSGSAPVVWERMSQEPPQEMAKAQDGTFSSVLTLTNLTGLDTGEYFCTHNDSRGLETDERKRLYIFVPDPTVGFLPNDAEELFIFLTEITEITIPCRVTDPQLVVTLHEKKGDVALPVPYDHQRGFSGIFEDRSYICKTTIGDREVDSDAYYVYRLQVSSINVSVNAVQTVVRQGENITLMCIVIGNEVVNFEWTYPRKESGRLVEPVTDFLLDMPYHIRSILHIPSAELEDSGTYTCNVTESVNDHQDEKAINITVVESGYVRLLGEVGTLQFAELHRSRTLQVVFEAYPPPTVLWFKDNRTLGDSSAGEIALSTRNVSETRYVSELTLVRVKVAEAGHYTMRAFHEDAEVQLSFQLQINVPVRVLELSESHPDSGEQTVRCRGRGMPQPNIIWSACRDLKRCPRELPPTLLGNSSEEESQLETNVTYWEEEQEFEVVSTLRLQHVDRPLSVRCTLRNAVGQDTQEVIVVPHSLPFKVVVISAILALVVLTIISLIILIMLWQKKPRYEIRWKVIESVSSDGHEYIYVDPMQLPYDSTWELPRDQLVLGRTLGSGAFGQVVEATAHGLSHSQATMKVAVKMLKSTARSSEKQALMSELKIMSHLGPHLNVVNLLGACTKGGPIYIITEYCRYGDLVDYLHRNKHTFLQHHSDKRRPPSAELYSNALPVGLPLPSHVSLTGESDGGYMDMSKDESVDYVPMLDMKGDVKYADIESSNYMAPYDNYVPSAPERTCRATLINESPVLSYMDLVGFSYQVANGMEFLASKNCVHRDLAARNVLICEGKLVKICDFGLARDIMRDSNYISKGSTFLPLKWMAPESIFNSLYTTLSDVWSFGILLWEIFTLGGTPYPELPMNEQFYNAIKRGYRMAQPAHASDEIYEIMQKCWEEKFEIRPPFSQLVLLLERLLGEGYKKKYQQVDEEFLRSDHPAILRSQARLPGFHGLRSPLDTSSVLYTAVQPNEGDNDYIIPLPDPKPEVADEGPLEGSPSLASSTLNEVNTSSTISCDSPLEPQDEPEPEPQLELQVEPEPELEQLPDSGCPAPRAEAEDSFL

Take `CN1CCN(c2ccc(Nc3ncc(/C=C/C#N)c(NC4CCCC4)n3)cc2)CC1` [Compound 8h, 3-{4-Cyclopentylamino-2-[4-(4-methylpiperazin-1-yl)phenylamino]pyrimidin-5-yl}acrylonitrile]: the IC50 (in general, the point on the concentration scale where inhibition reaches its midpoint) is under 100 nM in [1]; under 100 nM in test [2]; over 1000 nM in [3]; over 1000 nM in [4]; 100 to 1000 nM in test [5]; over 10000 nM in test [6]. In addition, the IC50 in test [7] is 100 to 1000 nM; in test [8], under 100 nM; in test [9] it was under 100 nM; in [10], 100 to 1000 nM; in test [11] it was 100 to 1000 nM; in test [12], 100 to 1000 nM. In addition, the IC50 in test [13] was under 100 nM; in test [14], over 1000 nM; in test [15], over 1000 nM.
